According to patent publication US20250152592A1, “PHARMACEUTICAL COMPOSITION COMPRISING ALLOPURINOL, FEBUXOSTAT OR PHARMACEUTICALLY ACCEPTABLE SALT THEREOF FOR PREVENTION OR TREATMENT OF CHRONIC KIDNEY DISEASE IN SUBJECT HAVING HIGH SERUM URIC ACID CONCENTRATION” (Indream Healthcare Inc., priority 2022, published 2025):

What was measured:
[1] = cited from earlier work; for acute renal failure reported more often: post-marketing study, Arthritis Research & Therapy volume 21, Article number: 229 (2019)
[2] = test system: patients with gout and a history of major cardiovascular diseases; assay: odds ratio for risk of developing or worsening chronic kidney disease, serum uric acid at or above 6 vs below 6; assay type: in vivo, human
Procedure: In order to confirm the effect of allopurinol and febuxostat on the kidney disease, the data obtained in the clinical trial described above was analyzed.
The patients were classified into patient groups by specific biomarkers such as blood glucose level, blood pressure, and kidney disease steps, and then risks of developing or worsening the kidney disease in patients who had the serum uric acid concentration decreased to less than 6 and patients who maintained the serum uric acid concentration at or above 6 were confirmed using odds ratios (OR) after the administration of allopurinol and febuxostat, and the results are shown in Tables 1 to 3.
Risks of developing the kidney disease of the patients who had the serum uric acid concentration decreased to less than 6 and the patients who maintained the serum uric acid concentration at or above 6 by administering allopurinol were confirmed using the odds ratios, and the results are shown in the following Table 1.
(§1) In Table 6, the risks of developing the kidney disease of the patients who had the serum uric acid concentration decreased to less than 6 and the patients who maintained the serum uric acid concentration at or above 6 by administering febuxostat are confirmed using the odds ratios.
as §1, with “12,” for “6,”, “were” for “by administering febuxostat are”, “ratio, in both patient groups to which allopurinol or febuxostat was administered.” for “ratios.”

[3] = Table 12, both administration groups

| Structure (SMILES) | drug-induced nephrotoxicity ([1]; Am Fam Physician. 2008 September) | effect on kidney function ([1]; Kaohsiung J Med Sci. 2005 May;21(5):228-32) | acute renal failure reported more often [1] [times] | prevention or treatment of chronic kidney disease when serum uric acid maintained below 6 ([2]; Table 12, blood glucose ≥126 mg/dl, DBP ≤80 mm/Hg, or SBP ≤130 mm/Hg) | prevention or treatment of chronic kidney disease when serum uric acid maintained below 6 [2, 3] | risk of developing or worsening the chronic kidney disease, serum uric acid at or above 6 vs below 6 (odds ratio) ([2]; allopurinol, blood glucose level of 126 mg/dl or less) | risk of developing or worsening the chronic kidney disease, serum uric acid at or above 6 vs below 6 (odds ratio) ([2]; allopurinol, blood glucose level of 126 mg/dl or more) | risk of developing or worsening the kidney disease, serum uric acid at or above 6 vs below 6 (odds ratio) ([2]; allopurinol, diastolic blood pressure of 80 mm/Hg or higher) | risk of developing or worsening the chronic kidney disease, serum uric acid at or above 6 vs below 6 (odds ratio) ([2]; allopurinol, diastolic blood pressure of 80 mm/Hg or lower) | risk of developing or worsening the chronic kidney disease, serum uric acid at 6 or more vs below 6 (odds ratio) ([2]; allopurinol, having congestive cardiac failure) | risk of developing or worsening the chronic kidney disease, serum uric acid at 6 or more vs below 6 (odds ratio) ([2]; allopurinol, no congestive cardiac failure) | risk of developing or worsening the chronic kidney disease, serum uric acid at or above 6 vs below 6 (odds ratio) ([2]; allopurinol, systolic blood pressure of 130 mm/Hg or higher) | risk of developing or worsening the chronic kidney disease, serum uric acid at or above 6 vs below 6 (odds ratio) ([2]; allopurinol, systolic blood pressure of 130 mm/Hg or lower) | prevention or treatment of chronic kidney disease when serum uric acid maintained below 6 ([2]; Table 6, blood glucose ≥126 mg/dl, DBP ≤80 mm/Hg, or SBP ≤130 mm/Hg) | prevention or treatment of chronic kidney disease when serum uric acid maintained below 6 ([2]; Table 6, serum uric acid of 8 mg/dL or more or gout lasting for 10 years or more) |
| --- | --- | --- | --- | --- | --- | --- | --- | --- | --- | --- | --- | --- | --- | --- | --- |
| Oc1ncnc2[nH]ncc12 [allopurinol] | causes acute interstitial nephritis | worsens kidney function | 3.3 | effectively prevented or treated | effectively prevented or treated | about 1.34 times | about 2.53 times | about 1.35 times | about 2.04 times | about 1.21 times | about 1.84 times | about 1.54 times | about 1.93 times | – | – |
| Cc1nc(-c2ccc(OCC(C)C)c(C#N)c2)sc1C(=O)O [febuxostat] | – | – | 5.7 | – | effectively prevented or treated | – | – | – | – | – | – | – | – | effectively prevented or treated | effectively prevented or treated |
